Test [1] concerns the target T1, hCTR (Homo sapiens, UniProt P30988).
T1 sequence (P30988 25-474): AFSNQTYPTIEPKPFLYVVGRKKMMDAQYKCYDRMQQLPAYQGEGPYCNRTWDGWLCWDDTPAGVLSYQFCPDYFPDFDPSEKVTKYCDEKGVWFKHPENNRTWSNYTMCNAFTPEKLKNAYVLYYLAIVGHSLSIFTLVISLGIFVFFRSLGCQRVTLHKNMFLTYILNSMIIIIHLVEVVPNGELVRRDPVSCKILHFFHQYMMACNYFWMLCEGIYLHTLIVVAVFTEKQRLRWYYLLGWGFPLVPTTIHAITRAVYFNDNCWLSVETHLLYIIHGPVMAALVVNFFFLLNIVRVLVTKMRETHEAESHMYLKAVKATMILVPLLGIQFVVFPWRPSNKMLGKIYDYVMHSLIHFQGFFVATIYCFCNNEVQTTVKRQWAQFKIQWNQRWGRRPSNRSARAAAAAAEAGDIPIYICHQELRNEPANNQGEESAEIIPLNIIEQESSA
Kind of test: cAMP-responsive element luciferase reporter assay, human CTR. The format is cell-based. Particulars: luciferase (human receptor assay); for pEC50: BHK cells stably expressing hCTR and CRE-luciferase, 3 h, 37 °C, 10% FBS, read-out: hCTR EC50.

For another test, the target named is T2, rCTR (Rattus norvegicus, UniProt P32214).
T2 construct: expressed in transfected cells; host or cells: BHK tk-ts 13, transient (FuGENE 6)
T2 sequence (P32214 25-479 isoform P32214-2 limits assumed): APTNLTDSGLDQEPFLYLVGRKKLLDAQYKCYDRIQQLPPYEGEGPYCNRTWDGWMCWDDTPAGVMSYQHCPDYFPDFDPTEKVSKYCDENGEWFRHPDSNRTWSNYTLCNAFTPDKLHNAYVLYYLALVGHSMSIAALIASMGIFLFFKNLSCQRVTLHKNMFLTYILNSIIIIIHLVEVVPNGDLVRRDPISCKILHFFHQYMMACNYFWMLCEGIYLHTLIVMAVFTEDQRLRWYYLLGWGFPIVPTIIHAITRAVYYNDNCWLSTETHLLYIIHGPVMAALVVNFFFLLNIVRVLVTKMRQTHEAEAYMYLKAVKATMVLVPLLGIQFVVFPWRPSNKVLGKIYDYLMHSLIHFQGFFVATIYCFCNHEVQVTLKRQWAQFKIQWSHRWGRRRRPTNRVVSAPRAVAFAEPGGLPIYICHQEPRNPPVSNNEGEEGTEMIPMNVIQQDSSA
Kind of test: scintillation proximity binding assay, rCTR membranes. How it is done:
(§1) The apparent binding affinities were determined using a scintillation proximity assay with beads from PerkinElmer and cell membranes containing the AMY3R or CTRs. […] Membranes were harvested and membranes were prepared and kept at −80 °C until use. The assay was performed in a 384-well Optiplate (PerkinElmer). Membranes were mixed with scintillation proximity assay beads in a 1:1 ratio. […] Samples were analyzed on a TopCounter (Packard). The IC50 values were calculated using GraphPad Prism. See Supporting Information S7: SAR Screening Assay Methods (Binding Assays (Human and Rat)) for more information.
(§2) Binding Assays (Human and Rat). Brief descriptions of the methods used to determine binding affinities for SAR analysis are described below. Curves and IC50 values were plotted and calculated in GraphPad Prism using nonlinear regression (one site binding competition analysis), with pIC50 values […]
(§3) values were used to calculate the binding affinity ratios in order to express the selectivity of compounds for the AMY3R versus the CTR.
(§4) CTR Binding Assay. The binding assay was performed using scintillation proximity assay (SPA) beads (RPNQ0001) from PerkinElmer and cell membranes containing either the hCTR or rCTR. BHK […]
(§5) Membranes were prepared in the following way: the cells were rinsed with PBS and incubated with Versene for approximately 5 min before harvesting. The cells were flushed with PBS and the cell-suspension was centrifuged for 5 min at 1000 rpm. Cells were homogenized (Ultra Turrax) in a buffer […]
(§6) containing 20 mM Na-HEPES and 0.1 mM EDTA (pH 7.4, buffer 2). The resulting pellet was re-suspended in buffer 2 and protein concentration was measured (BCA protein assay, Pierce). The homogenate was kept cold during the whole procedure. The membranes were stored at –80 °C until […]
(§7) The binding assay was performed in a 384-well Optiplate (PerkinElmer) in a total volume of 40 μL.
(§8) Membranes were mixed with SPA beads in a 1:1 ratio. […]
(§9) mg/well. Test compounds were dissolved in DMSO and further diluted in assay buffer (50 mM HEPES, pH 7.4, 1 mM CaCl2, 5 mM MgCl2, 0.1% ovalbumin, and 0.02% Tween-20).
(§10) Calcitonin (NEX422 PerkinElmer) was dissolved in assay buffer and added to the Optiplate at a final […]
(§11) prior to centrifugation (1500 rpm, 10 min). Samples were analyzed on TopCounter (Packard).

Test [2] deals with T1, hCTR. Kind of test: scintillation proximity binding assay, hCTR membranes. Set-up: expressed in transfected cells; host or cells: BHK tk-ts 13, transient (FuGENE 6); membranes for the SPA, whole cells for the species-specific assays. Particulars: for pIC50: SPA, BHK cell membranes, 125I-Calcitonin 75 pM, 120 min 25 °C, read-out: hCTR IC50. How it is done:
as §1, §2, §3, §4, §5, §6, §7, §8, §9, §10, §11

Molecules are shown by their SMILES. pEC50, pIC50: −log10 of the molar value. Read-outs that look alike come from different tables or passages of the source. Numbered stars: 1 amine (or outer) side, 2 acyl side, 3 side chain; on linkers, the order of the positions; unused ones are H or OH. Bridge positions count the residues as written; N and C are the ends. Side chains are listed from the residue outwards. Peptide text beside a SMILES is read from it. * marks the point of attachment. C20 diacid = O=C(O)CCCCCCCCCCCCCCCCCCC(=O)*; γGlu = O=C(O)[C@H](CCC(=O)[*:2])N[*:1]

As to `CC(C)C[C@H](NC(=O)[C@H](CCCNC(=N)N)NC(=O)[C@H](CCC(N)=O)NC(=O)[C@@H](NC(=O)[C@H](C)NC(=O)[C@@H]1CSSC[C@H](NC(=O)[C@@H](N)CCCCNC(=O)CC[C@H](NC(=O)CC[C@H](NC(=O)CCCCCCCCCCCCCCCCCCC(=O)O)C(=O)O)C(=O)O)C(=O)N[C@@H](CC(N)=O)C(=O)N[C@@H]([C@@H](C)O)C(=O)N[C@@H](C)C(=O)N[C@@H]([C@@H](C)O)C(=O)N1)[C@@H](C)O)C(=O)N[C@@H](C)C(=O)N[C@@H](CC(=O)O)C(=O)N[C@@H](Cc1ccccc1)C(=O)N[C@@H](CC(C)C)C(=O)N[C@@H](CCCNC(=N)N)C(=O)N[C@@H](Cc1c[nH]cn1)C(=O)N[C@@H](CO)C(=O)N[C@@H](CO)C(=O)N1CCC[C@H]1C(=O)N[C@@H](CC(N)=O)C(=O)N[C@@H](Cc1ccccc1)C(=O)NCC(=O)N[C@@H](C)C(=O)N1CCC[C@H]1C(=O)N[C@@H](CC(C)C)C(=O)N[C@@H](CO)C(=O)N[C@@H](CO)C(=O)N[C@H](C(=O)N[C@@H](CC(N)=O)C(=O)N[C@H](C(=O)NCC(=O)N[C@@H](CO)C(=O)N[C@@H](CC(=O)O)C(=O)N[C@H](C(=O)N[C@@H](Cc1ccc(O)cc1)C(N)=O)[C@@H](C)O)C(C)C)[C@@H](C)O` [Peptide 5] (H-K([γGlu-γGlu-C20 diacid])CNTATCATQRLADFLRHSSPNFGAPLSSTNVGSDTY-NH2; disulfide 2-7), the EC50 at hCTR [1] (Tables S12 and S14, read-out: hCTR pEC50 (converted)) was 2.57 nM. In addition, the pEC50 at hCTR [1] was 8.59. Further, the IC50 on rCTR (SPA binding assay, Tables S13 and S15, read-out: rCTR pIC50 (converted)) is 105 nM; at hCTR [2] (SPA binding assay, Tables S13 and S15, read-out: hCTR pIC50 (converted)), 30.2 nM. The pIC50 is 6.98 at rCTR (SPA, BHK cell membranes, 125I-Calcitonin 75 pM, 120 min 25 °C, read-out: rCTR IC50) and 7.52 at hCTR [2].

As to `CC[C@H](C)[C@H](NC(=O)[C@H](C)NC(=O)CNC(=O)[C@H](Cc1ccccc1)NC(=O)[C@H](CC(N)=O)NC(=O)[C@@H]1CCCN1C(=O)[C@H](CO)NC(=O)[C@H](CO)NC(=O)[C@H](Cc1c[nH]cn1)NC(=O)[C@H](CCCNC(=N)N)NC(=O)[C@H](CC(C)C)NC(=O)[C@H](Cc1ccccc1)NC(=O)[C@H](CCC(=O)O)NC(=O)[C@H](C)NC(=O)[C@H](CC(C)C)NC(=O)[C@H](CCCNC(=N)N)NC(=O)[C@H](CCC(N)=O)NC(=O)[C@@H](NC(=O)[C@H](C)NC(=O)[C@@H]1CSSC[C@H](NC(=O)[C@@H](N)CCCCNC(=O)CC[C@H](NC(=O)CCCCCCCCCCCCCCCCCCC(=O)O)C(=O)O)C(=O)N[C@@H](CC(N)=O)C(=O)N[C@@H]([C@@H](C)O)C(=O)N[C@@H](C)C(=O)N[C@@H]([C@@H](C)O)C(=O)N1)[C@@H](C)O)C(=O)N1CCC[C@H]1C(=O)N[C@@H](CO)C(=O)N[C@@H](CO)C(=O)N[C@H](C(=O)N[C@@H](CC(N)=O)C(=O)N[C@H](C(=O)NCC(=O)N[C@@H](CO)C(=O)N[C@@H](CCCNC(=N)N)C(=O)N[C@H](C(=O)N[C@@H](Cc1ccc(O)cc1)C(N)=O)[C@@H](C)O)C(C)C)[C@@H](C)O` [Peptide 20] (H-K([γGlu-C20 diacid])CNTATCATQRLAEFLRHSSPNFGAIPSSTNVGSRTY-NH2; disulfide 2-7), the “hCTR pEC50” value on hCTR [1] (Tables S12 and S14) was determined as 8.28. For the same compound, the pEC50 at hCTR [1] was 8.28.

Consider `CC[C@H](C)[C@H](NC(=O)[C@H](C)NC(=O)CNC(=O)[C@H](Cc1ccccc1)NC(=O)[C@H](CC(N)=O)NC(=O)[C@@H]1CCCN1C(=O)[C@H](CO)NC(=O)[C@H](CO)NC(=O)[C@H](Cc1c[nH]cn1)NC(=O)[C@H](CCCNC(=N)N)NC(=O)[C@H](CC(C)C)NC(=O)[C@H](Cc1ccccc1)NC(=O)[C@H](CC(=O)O)NC(=O)[C@H](C)NC(=O)[C@H](CC(C)C)NC(=O)[C@H](CCCNC(=N)N)NC(=O)[C@H](CCC(N)=O)NC(=O)[C@@H](NC(=O)[C@H](C)NC(=O)[C@@H]1CSSC[C@H](NC(=O)[C@@H](N)CCCCNC(=O)CC[C@H](NC(=O)CC[C@H](NC(=O)CCCCCCCCCCCCCCCCCCC(=O)O)C(=O)O)C(=O)O)C(=O)N[C@@H](CC(N)=O)C(=O)N[C@@H]([C@@H](C)O)C(=O)N[C@@H](C)C(=O)N[C@@H]([C@@H](C)O)C(=O)N1)[C@@H](C)O)C(=O)N1CCC[C@H]1C(=O)N[C@@H](CO)C(=O)N[C@@H](CO)C(=O)N[C@H](C(=O)N[C@@H](CC(N)=O)C(=O)N[C@H](C(=O)NCC(=O)N[C@@H](CO)C(=O)N[C@@H](CC(=O)O)C(=O)N[C@H](C(=O)N[C@@H](Cc1ccc(O)cc1)C(N)=O)[C@@H](C)O)C(C)C)[C@@H](C)O` [Peptide 6] (H-K([γGlu-γGlu-C20 diacid])CNTATCATQRLADFLRHSSPNFGAIPSSTNVGSDTY-NH2; disulfide 2-7), for which the “hCTR pIC50” value at hCTR [2] (SPA binding assay, Tables S13 and S15) was found to be 7.71. In addition, the pIC50 on hCTR [2] is 7.71.

Consider `CC(C)C[C@H](NC(=O)[C@H](CCCNC(=N)N)NC(=O)[C@H](CCC(N)=O)NC(=O)[C@@H](NC(=O)[C@H](C)NC(=O)[C@@H]1CSSC[C@H](NC(=O)[C@@H](N)CCCCNC(=O)CC[C@H](NC(=O)CC[C@H](NC(=O)CCCCCCCCCCCCCCCCCCC(=O)O)C(=O)O)C(=O)O)C(=O)N[C@@H](CC(N)=O)C(=O)N[C@@H]([C@@H](C)O)C(=O)N[C@@H](C)C(=O)N[C@@H]([C@@H](C)O)C(=O)N1)[C@@H](C)O)C(=O)N[C@@H](C)C(=O)N[C@@H](CC(=O)O)C(=O)N[C@@H](Cc1ccccc1)C(=O)N[C@@H](CC(C)C)C(=O)N[C@@H](CCCNC(=N)N)C(=O)N[C@@H](Cc1c[nH]cn1)C(=O)N[C@@H](CO)C(=O)N[C@@H](CO)C(=O)N[C@@H](CC(N)=O)C(=O)N1CCC[C@H]1C(=O)N[C@@H](Cc1ccccc1)C(=O)NCC(=O)N[C@@H](C)C(=O)N1CCC[C@H]1C(=O)N[C@@H](CC(C)C)C(=O)N[C@@H](CO)C(=O)N[C@@H](CO)C(=O)N[C@H](C(=O)N[C@@H](CC(N)=O)C(=O)N[C@H](C(=O)NCC(=O)N[C@@H](CO)C(=O)N[C@@H](CC(=O)O)C(=O)N[C@H](C(=O)N[C@@H](Cc1ccc(O)cc1)C(N)=O)[C@@H](C)O)C(C)C)[C@@H](C)O` [Peptide 7] (H-K([γGlu-γGlu-C20 diacid])CNTATCATQRLADFLRHSSNPFGAPLSSTNVGSDTY-NH2; disulfide 2-7), for which the “hCTR pEC50” value on hCTR [1] (Tables S12 and S14) is 8.86.

The values are drawn from PMC11284788, “NN1213 – A Potent, Long-Acting, and Selective Analog of Human Amylin” (Journal of Medicinal Chemistry, 2024).
